In PubChem BioAssay AID1259407 (Chemical Carcinogenesis Research Information System (CCRIS), 2018) one finds mutagenic call data, which are given here for 7 molecules.

The source made the active and inactive calls. The rule behind the calls is not given here.

The series relates to CCRIS mutagenicity, Ames/micronucleus/aberration tests. Nature of the series: CCRIS mutagenicity studies.
Setting [1] is: Test System: AMES SALMONELLA TYPHIMURIUM, Strain/Indicator: TA98, Metabolic Activation: NONE, Method: STANDARD PLATE.
Setting [2] is: Test System: AMES SALMONELLA TYPHIMURIUM, Strain/Indicator: TA98, Metabolic Activation: RAT, LIVER, S-9, PHENOBARBITAL, Method: STANDARD PLATE.
The mark [3] stands for this setting: Test System: AMES SALMONELLA TYPHIMURIUM, Strain/Indicator: TA100, Metabolic Activation: NONE, Method: STANDARD PLATE.
Where [4] appears, read: Test System: AMES SALMONELLA TYPHIMURIUM, Strain/Indicator: TA100, Metabolic Activation: RAT, LIVER, S-9, PHENOBARBITAL, Method: STANDARD PLATE.
The mark [5] stands for this setting: Test System: AMES SALMONELLA TYPHIMURIUM, Strain/Indicator: TA98, Metabolic Activation: NONE.

For `c1ccc2c(c1)ccc1[nH]c3ccc4ccccc4c3c12`, the mutagenic call runs as follows: under setting [1], “inactive; negative”; (Test System: AMES SALMONELLA TYPHIMURIUM, Strain/Indicator: TA98, Metabolic Activation: RAT, LIVER, S-9, 3-METHYLCHOLANTHRENE, Method: STANDARD PLATE) “inactive; negative”; (Test System: AMES SALMONELLA TYPHIMURIUM, Strain/Indicator: TA98, Metabolic Activation: RAT, LIVER, S-9, AROCLOR 1254, Method: STANDARD PLATE) “inactive; negative”; under setting [2], “inactive; negative”; (Test System: AMES SALMONELLA TYPHIMURIUM, Strain/Indicator: TA100, Metabolic Activation: MOUSE, LIVER, S-9, BETA-NAPHTHOFLAVONE, Method: STANDARD PLATE) “inactive; negative”; (Test System: AMES SALMONELLA TYPHIMURIUM, Strain/Indicator: TA100, Metabolic Activation: MOUSE, LIVER, S-9, PHENOBARBITAL, Method: STANDARD PLATE) “inactive; negative”. Further, the mutagenic call by setting is: under setting [3], “inactive; negative”; (Test System: AMES SALMONELLA TYPHIMURIUM, Strain/Indicator: TA100, Metabolic Activation: RABBIT, LIVER, S-9, BENZO[A]PYRENE, Method: STANDARD PLATE) “inactive; negative”; under setting [4], “inactive; negative”; (Test System: AMES SALMONELLA TYPHIMURIUM, Strain/Indicator: TM677, Metabolic Activation: NONE, Method: PREINCUBATION) “inactive; negative”; (Test System: AMES SALMONELLA TYPHIMURIUM, Strain/Indicator: TM677, Metabolic Activation: RAT, LIVER, S-9, 3-METHYLCHOLANTHRENE (1%), Method: PREINCUBATION) “active; positive”; (Test System: AMES SALMONELLA TYPHIMURIUM, Strain/Indicator: TM677, Metabolic Activation: RAT, LIVER, S-9, 3-METHYLCHOLANTHRENE (10%), Method: PREINCUBATION) “inactive; negative”.

As to `COc1cc(N=Nc2ncc([N+](=O)[O-])s2)c(NC(C)=O)cc1N(CCOC(=O)OCC(C)C)CCOC(=O)OCC(C)C`, the mutagenic call (End Point: IN VITRO CHROMOSOMAL ABERRATIONS, Test System: CHL CELLS, Metabolic Activation: RAT, LIVER, S-9, SODIUM PHENOBARBITAL AND 5,6-BENZOFLAVONE) was “active; positive (ploidy changes)”.

Consider `COc1cccc2c1ccc1c(C(=O)O)cc3c(c12)OCO3`, for which the mutagenic call runs as follows: (Test System: AMES SALMONELLA TYPHIMURIUM, Strain/Indicator: D3052, Metabolic Activation: NONE, Method: STANDARD PLATE) “inactive; negative”; (Test System: AMES SALMONELLA TYPHIMURIUM, Strain/Indicator: D3052, Metabolic Activation: RAT, LIVER, S-9, PHENOBARBITAL, Method: STANDARD PLATE) “inactive; negative”; (Test System: AMES SALMONELLA TYPHIMURIUM, Strain/Indicator: G46, Metabolic Activation: NONE, Method: STANDARD PLATE) “inactive; negative”; (Test System: AMES SALMONELLA TYPHIMURIUM, Strain/Indicator: G46, Metabolic Activation: RAT, LIVER, S-9, PHENOBARBITAL, Method: STANDARD PLATE) “inactive; negative”; (Test System: AMES SALMONELLA TYPHIMURIUM, Strain/Indicator: TA98(NR), Metabolic Activation: NONE, Method: STANDARD PLATE) “active; positive”; under setting [2], “inactive; negative”. Moreover, the mutagenic call is, setting by setting: (Test System: AMES SALMONELLA TYPHIMURIUM, Strain/Indicator: TA100(NR), Metabolic Activation: NONE, Method: STANDARD PLATE) “active; positive”; under setting [4], “inactive; negative”; (Test System: AMES SALMONELLA TYPHIMURIUM, Strain/Indicator: TA102, Metabolic Activation: NONE, Method: STANDARD PLATE) “active; positive”; (Test System: AMES SALMONELLA TYPHIMURIUM, Strain/Indicator: TA1535, Metabolic Activation: NONE, Method: STANDARD PLATE) “inactive; negative”; (Test System: AMES SALMONELLA TYPHIMURIUM, Strain/Indicator: TA1535, Metabolic Activation: RAT, LIVER, S-9, PHENOBARBITAL, Method: STANDARD PLATE) “inactive; negative”; (Test System: AMES SALMONELLA TYPHIMURIUM, Strain/Indicator: TA1978, Metabolic Activation: NONE, Method: STANDARD PLATE) “inactive; negative”. The mutagenic call by setting is: (Test System: AMES SALMONELLA TYPHIMURIUM, Strain/Indicator: TA1978, Metabolic Activation: RAT, LIVER, S-9, PHENOBARBITAL, Method: STANDARD PLATE) “inactive; negative”; (Test System: AMES SALMONELLA TYPHIMURIUM, Strain/Indicator: TM677/8-AZAGUANINE, Metabolic Activation: NONE, Method: SUSPENSION/PLATE) “active; positive”; (Test System: AMES SALMONELLA TYPHIMURIUM, Strain/Indicator: YG1021, Metabolic Activation: NONE, Method: STANDARD PLATE) “inactive; negative”; (Test System: AMES SALMONELLA TYPHIMURIUM, Strain/Indicator: YG1026, Metabolic Activation: NONE, Method: STANDARD PLATE) “inactive; negative”; (Test System: CHINESE HAMSTER OVARY, Strain/Indicator: CHO-K1-BH4 (HGPRT), Metabolic Activation: NONE) “active; positive”.

For the molecule `CC(C)(Oc1ccc(C2CCCc3ccccc32)cc1)C(=O)O` (configuration not stated), the mutagenic call under setting [5] is “inactive; negative”; the mutagenic call (Test System: AMES SALMONELLA TYPHIMURIUM, Strain/Indicator: TA98, Metabolic Activation: RAT, LIVER, S-9, AROCLOR 1254) was “inactive; negative”; the mutagenic call (Test System: AMES SALMONELLA TYPHIMURIUM, Strain/Indicator: TA102, Metabolic Activation: NONE) was “inactive; negative”; the mutagenic call (Test System: AMES SALMONELLA TYPHIMURIUM, Strain/Indicator: TA102, Metabolic Activation: RAT, LIVER, S-9, AROCLOR 1254) was “inactive; negative”; the mutagenic call (Test System: AMES SALMONELLA TYPHIMURIUM, Strain/Indicator: TA104, Metabolic Activation: NONE) is “inactive; negative”; the mutagenic call (Test System: AMES SALMONELLA TYPHIMURIUM, Strain/Indicator: TA104, Metabolic Activation: RAT, LIVER, S-9, AROCLOR 1254) is “inactive; negative”. Further, the mutagenic call (Test System: UDS RAT HEPATOCYTES, Strain/Indicator: THY INCORP, Metabolic Activation: NONE, Method: LIQUID SCINTILLATION COUNTING) is “inactive; negative”.

For `CC(C)COP(=S)(OCC(C)C)SCCl`, the mutagenic call is, setting by setting: under setting [5], “inactive; negative”; under setting [1], “inactive; negative”; (Test System: AMES SALMONELLA TYPHIMURIUM, Strain/Indicator: TA98, Metabolic Activation: RAT, LIVER, S-9, SODIUM PHENOBARBITAL, Method: STANDARD PLATE) “inactive; negative”; (Test System: AMES SALMONELLA TYPHIMURIUM, Strain/Indicator: TA98, Metabolic Activation: S-9) “inactive; negative”; (Test System: AMES SALMONELLA TYPHIMURIUM, Strain/Indicator: TA100, Metabolic Activation: NONE) “inactive; negative”; under setting [3], “inactive; negative”. Besides, the mutagenic call is, setting by setting: (Test System: AMES SALMONELLA TYPHIMURIUM, Strain/Indicator: TA100, Metabolic Activation: RAT, LIVER, S-9, SODIUM PHENOBARBITAL, Method: STANDARD PLATE) “inactive; negative”; (Test System: AMES SALMONELLA TYPHIMURIUM, Strain/Indicator: TA100, Metabolic Activation: S-9) “inactive; negative”; (Test System: E. COLI, Strain/Indicator: WP2, Metabolic Activation: NONE) “inactive; negative”; (Test System: E. COLI, Strain/Indicator: WP2, Metabolic Activation: RAT, LIVER, S-9, SODIUM PHENOBARBITAL, Method: STANDARD PLATE) “inactive; negative”; (Test System: E. COLI, Strain/Indicator: WP2, Metabolic Activation: S-9) “inactive; negative”; (Test System: E. COLI, Strain/Indicator: WP2 UVRA, Metabolic Activation: NONE) “inactive; negative”. The mutagenic call reads like this: (Test System: E. COLI, Strain/Indicator: WP2 UVRA, Metabolic Activation: RAT, LIVER, S-9, SODIUM PHENOBARBITAL, Method: STANDARD PLATE) “inactive; negative”; (Test System: E. COLI, Strain/Indicator: WP2 UVRA, Metabolic Activation: S-9) “inactive; negative”.

Consider `c1ccc2c(c1)-c1nc3ccccc3c3c1c-2nc1ccccc13`, for which the mutagenic call is “inactive; negative” under setting [1]; “inactive; negative” (Test System: AMES SALMONELLA TYPHIMURIUM, Strain/Indicator: TA98, Metabolic Activation: RAT LIVER S-9, AROCLOR 1254, Method: STANDARD PLATE); “inactive; negative” (Test System: ESCHERICHIA COLI, Strain/Indicator: WP2 UVR A, Metabolic Activation: NONE, Method: STANDARD PLATE); “inactive; negative” (Test System: ESCHERICHIA COLI, Strain/Indicator: WP2 UVR A, Metabolic Activation: RAT LIVER S-9, AROCLOR 1254, Method: STANDARD PLATE).

Regarding `CCCCN=NC(C)(C)OO`, the mutagenic call is “active; positive” (Test System: AMES SALMONELLA TYPHIMURIUM, Strain/Indicator: TA1535, Metabolic Activation: NONE) and “active; positive” (Test System: E. COLI, Strain/Indicator: WP2 (HCR-), Metabolic Activation: NONE).
